{
  "source": "patent US20250255876A1",
  "about": "“COMPOSITIONS AND METHODS FOR CANCER TREATMENT” (ARIEL SCIENTIFIC INNOVATIONS LTD., priority 2021, published 2025)",
  "key": {"[1]": {"biological_target": "MAD2L2-Rev1 complex (Homo sapiens, UniProt Q9UI95)", "sequence (Q9UI95 whole entry, one chain of several)": "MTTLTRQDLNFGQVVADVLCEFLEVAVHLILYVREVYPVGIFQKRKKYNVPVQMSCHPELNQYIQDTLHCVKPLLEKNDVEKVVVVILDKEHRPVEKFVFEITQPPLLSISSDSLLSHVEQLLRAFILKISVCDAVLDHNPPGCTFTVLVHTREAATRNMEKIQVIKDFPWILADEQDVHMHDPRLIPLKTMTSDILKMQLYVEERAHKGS", "assay": "Proximity ligation assay (PLA) of MAD2L2-Rev1 binding", "format": "cell-based", "method": "FIG. 16 is a bar graph showing that c #3 reduces Rev1-MAD2L2 interaction. PLA on cells treated with 10 μM cisplatin and 100 μM of c #3 for 24 h. In each analyzed field, cells and foci were counted separately and the ratio of foci/cell was calculated. Each dot represents the average of foci/cell in one analyzed field. SD=1. The P-value was calculated by a one-tailed t-test.\n#3 disturbs MAD2L2-Rev1 complex formation. Detection of MAD2L2-Rev1 binding using the proximity ligation assay (PLA), which allows endogenous detection of protein-protein interactions. To enrich for MAD2L2-Rev1 foci, cells were co-treated with 10 μM cisplatin and 100 μM c #3 for 24h. Next, the PLA reaction was performed and foci, representing the MAD2L2-Rev1 complex, were counted."}, "[2]": {"system": "γH2AX foci in B16F10 cells", "assay": "γH2AX foci immunofluorescence, B16F10 cells", "format": "cell-based, mouse", "method": "FIGS. 15A-15B3 present micrographs and graphs showing that c #3 increases DNA damage after combined treatment. (15A). Representative figures of TH2AX in A549 cells (left panel), H1975 (middle panel) and B16F10 (right panel) with different treatments as indicated. Quantification of A549 (15B1), H1975(15B2), and B16F10 cells(15B3)′ foci/cell in each treatment. The total number of cells scored is indicated. Error bars=1 SD, P-value was calculated by two-tailed t-test. In all experiments, A549 cells were treated with 10 μM cisplatin and H1975 and B16F10 cells with 5 μM cisplatin. All cell lines were co-treated with 50 μM of c #3. Cells were co-treated for 16 h before analysis.SD=1, The P-value was calculated using a one-tailed t-test.\nCombined treatment of cisplatin with c #3 correlates with an increase in DNA damage. Levels of γ-H2AX foci, a marker for DNA double-strand breaks, were compared in H1975, A549 and B16F10 cell lines."}, "[3]": {"biological_target": "MAD2L2 (Homo sapiens, UniProt Q9UI95)", "sequence (Q9UI95 whole entry)": "as the sequence (Q9UI95 whole entry, one chain of several) above", "assay": "Field Effect Biosensing (FEB) binding assay", "set-up": "made in house; host or cells: E. coli BL21 Star", "method": "E. coli BL21 Star cells were transfected with GST-MAD2L2 vector. Protein induction was done for 4 hours in 30° C., with 1 mM IPTG. Purification was done according to standard GST protocol.\nThe binding kinetics of MAD2L2 to the small molecule compounds were measured by the Field Effect Biosensing (FEB) Agile R100 label-free binding assay (Nanomedical Diagnostics Inc), following their standard protocol. Briefly, 500 nM of purified MAD2L2 was immobilized on a graphene sensor chip through amine groups. The current baseline level for the chip was recorded in PBS. Next, PBS was aspirated, and the changes in the baseline current induced by 50 μl of 1, 10, 20, 30, 40 and 50 μM droplets of the tested compound were recorded. KD values were calculated by the DataLine 2.0 software by either a Hill equation fit or by using the kon and koff values at a single concentration. The KD values obtained by these two methods were almost identical.\nIn order to validate that MAD2L2 is a direct target of c #2 and c #3, the inventors tested the compounds' binding kinetics to a recombinant protein by Field Effect Biosensing (FEB) technology. Briefly, purified GST-MAD2L2 was immobilized onto a graphite chip, and the current across the chip is measured to determine the baseline current. […] The Kon and Koff of the interaction were measured over time and were used to calculate the KD. […]"}, "[4]": {"system": "B16F10 cells", "assay": "B16F10 subcutaneous tumor in C57BL mice, intratumoral injection", "format": "in vivo, mouse", "method": "FIGS. 17A-17E are micrographs and graphs showing that C#3 prevents tumor growth. 2*106 B16F10 cells were injected to the left flank of C57BL mice. After three days different treatments, as indicated, were injected to the newly formed tumor. (17A) tumor size (mm3) was measured daily for each mouse. In the co-treatment, almost no change in tumor size was observed, in the first three days. (17B) representative images of three tumors from each treatment group. (17C) For each treatment the fold-change in the volume of each day was compared to day 0. […] (17D) The co-treated group presented less developed tumors, which comprised about 2-3% of mice weight. (17E) H&E staining of a representative tumor from each group. Number of mice for each group in this experiment: DMSO n=7, cisplatin n=10, cisplatin+c #3 n=10, c #3 n=9. SD=1. P-values were calculated by one-tailed t-test. C#3 prevents tumor growth. To test the effect of c #3 in-vivo, we used a […] mouse model of C57BL mice. B16F10 cells were injected to the mouse's left flank and allowed to form a subcutaneous tumor. Next, we injected directly to the tumor DMSO, cisplatin, cisplatin+c #3 1 mg/kg, or c #3 alone, and tumor size was measured each day, up to 6 days. […] DNA damage burden in these fast-growing tumors is high, and TLS inhibition using c #3 prevents repair and enhances cell death. […]"}},
  "note": "“Also recorded” adds a separate entry of the source.",
  "data": [
    {"smiles": "Cc1oc(-c2ccco2)nc1CC(=O)N[C@@H](C(=O)O)c1ccccc1", "note": "[Compound 3]", "values": [
      {"measurement": "ratio of MAD2L2-Rev1 PLA foci per cell, co-treatment", "setting": "[1]; 10 μM cisplatin + 100 μM c #3, 24 h, compared to cisplatin alone", "value": "reduced ratio of foci per cell"},
      {"measurement": "MAD2L2-Rev1 complex formation (PLA), c #3 alone", "setting": "[1]; c #3 alone compared to DMSO", "value": "no effect on complex formation when DNA-damage is not induced"},
      {"measurement": "increase in γ-H2AX foci/cell in co-treated cells", "setting": "[2]; B16F10, 5 μM cisplatin + 50 μM c #3, 16 h", "value": 2, "unit": "fold"},
      {"measurement": "γ-H2AX signal, c #3 alone", "setting": "[2]; B16F10, c #3 alone", "value": "no effect on the γ-H2AX signal"},
      {"measurement": "affinity to MAD2L2 compared with c #2", "setting": "[3]; from FEB KD values, listed as c #3", "value": "approximately seven-fold higher; also recorded: sevenfold higher"},
      {"measurement": "Kd", "setting": "[3]; purified GST-MAD2L2 immobilized on chip, 1-50 μM compound", "value": 44.9, "unit": "µM"},
      {"measurement": "tumor growth (tumor volume, fold-change), co-treatment", "setting": "[4]; cisplatin 1 mg/kg + c #3 1 mg/kg injected into the tumor, listed as c #3", "value": "prevented tumor growth in the first three days; also recorded: significant growth inhibition when compared to all treatments"},
      {"measurement": "tumor histopathology (H&E), co-treatment", "setting": "[4]; cisplatin + c #3 co-treated, two tumors from each group", "value": "severe necrosis"}
    ]}
  ]
}
